ChEMBL document CHEMBL4819090, “Discovery of a new series of PI3K-δ inhibitors from Virtual Screening” (Bioorg Med Chem Lett, 2021)

How the values were obtained:
[1] = target: Phosphatidylinositol 4,5-bisphosphate 3-kinase catalytic subunit gamma isoform (Homo sapiens, UniProt P48736); assay: Inhibition of PI3Kgamma (unknown origin) by HTRF assay
[2] = target: Phosphatidylinositol 4,5-bisphosphate 3-kinase catalytic subunit beta isoform (Homo sapiens, UniProt P42338); assay: Inhibition of PI3Kbeta (unknown origin) by HTRF assay
Phosphatidylinositol 4,5-bisphosphate 3-kinase catalytic subunit beta isoform, sequence (P42338 whole entry, canonical isoform): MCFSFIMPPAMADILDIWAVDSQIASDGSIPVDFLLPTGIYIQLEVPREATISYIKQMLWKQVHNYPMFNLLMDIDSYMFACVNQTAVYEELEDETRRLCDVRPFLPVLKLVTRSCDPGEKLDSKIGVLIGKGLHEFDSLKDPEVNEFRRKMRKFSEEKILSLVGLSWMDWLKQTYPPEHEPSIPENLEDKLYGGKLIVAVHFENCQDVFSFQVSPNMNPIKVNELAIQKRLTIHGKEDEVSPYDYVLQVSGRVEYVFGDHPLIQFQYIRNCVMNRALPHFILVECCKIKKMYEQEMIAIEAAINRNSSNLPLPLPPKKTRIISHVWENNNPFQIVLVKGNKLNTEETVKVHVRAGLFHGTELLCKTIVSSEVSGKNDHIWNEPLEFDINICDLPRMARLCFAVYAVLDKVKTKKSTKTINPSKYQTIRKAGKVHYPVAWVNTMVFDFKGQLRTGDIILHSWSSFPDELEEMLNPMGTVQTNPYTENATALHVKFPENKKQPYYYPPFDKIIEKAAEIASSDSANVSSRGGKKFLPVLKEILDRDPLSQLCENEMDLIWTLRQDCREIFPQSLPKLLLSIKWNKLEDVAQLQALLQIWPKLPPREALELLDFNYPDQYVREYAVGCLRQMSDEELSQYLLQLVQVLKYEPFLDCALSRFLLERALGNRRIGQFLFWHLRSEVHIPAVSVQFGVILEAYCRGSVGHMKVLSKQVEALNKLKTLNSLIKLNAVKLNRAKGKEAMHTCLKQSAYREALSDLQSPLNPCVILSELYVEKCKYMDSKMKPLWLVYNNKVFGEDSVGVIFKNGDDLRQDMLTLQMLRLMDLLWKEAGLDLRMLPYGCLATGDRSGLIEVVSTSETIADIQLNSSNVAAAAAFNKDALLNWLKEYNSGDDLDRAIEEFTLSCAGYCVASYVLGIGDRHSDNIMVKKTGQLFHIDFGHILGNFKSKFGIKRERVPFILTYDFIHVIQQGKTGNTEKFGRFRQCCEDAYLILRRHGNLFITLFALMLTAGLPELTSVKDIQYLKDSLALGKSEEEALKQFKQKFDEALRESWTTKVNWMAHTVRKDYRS

[3] = target: Phosphatidylinositol 4,5-bisphosphate 3-kinase catalytic subunit alpha isoform (Homo sapiens, UniProt P42336); assay: Inhibition of PI3Kalpha (unknown origin) by HTRF assay
Phosphatidylinositol 4,5-bisphosphate 3-kinase catalytic subunit alpha isoform, sequence (P42336 whole entry, canonical isoform): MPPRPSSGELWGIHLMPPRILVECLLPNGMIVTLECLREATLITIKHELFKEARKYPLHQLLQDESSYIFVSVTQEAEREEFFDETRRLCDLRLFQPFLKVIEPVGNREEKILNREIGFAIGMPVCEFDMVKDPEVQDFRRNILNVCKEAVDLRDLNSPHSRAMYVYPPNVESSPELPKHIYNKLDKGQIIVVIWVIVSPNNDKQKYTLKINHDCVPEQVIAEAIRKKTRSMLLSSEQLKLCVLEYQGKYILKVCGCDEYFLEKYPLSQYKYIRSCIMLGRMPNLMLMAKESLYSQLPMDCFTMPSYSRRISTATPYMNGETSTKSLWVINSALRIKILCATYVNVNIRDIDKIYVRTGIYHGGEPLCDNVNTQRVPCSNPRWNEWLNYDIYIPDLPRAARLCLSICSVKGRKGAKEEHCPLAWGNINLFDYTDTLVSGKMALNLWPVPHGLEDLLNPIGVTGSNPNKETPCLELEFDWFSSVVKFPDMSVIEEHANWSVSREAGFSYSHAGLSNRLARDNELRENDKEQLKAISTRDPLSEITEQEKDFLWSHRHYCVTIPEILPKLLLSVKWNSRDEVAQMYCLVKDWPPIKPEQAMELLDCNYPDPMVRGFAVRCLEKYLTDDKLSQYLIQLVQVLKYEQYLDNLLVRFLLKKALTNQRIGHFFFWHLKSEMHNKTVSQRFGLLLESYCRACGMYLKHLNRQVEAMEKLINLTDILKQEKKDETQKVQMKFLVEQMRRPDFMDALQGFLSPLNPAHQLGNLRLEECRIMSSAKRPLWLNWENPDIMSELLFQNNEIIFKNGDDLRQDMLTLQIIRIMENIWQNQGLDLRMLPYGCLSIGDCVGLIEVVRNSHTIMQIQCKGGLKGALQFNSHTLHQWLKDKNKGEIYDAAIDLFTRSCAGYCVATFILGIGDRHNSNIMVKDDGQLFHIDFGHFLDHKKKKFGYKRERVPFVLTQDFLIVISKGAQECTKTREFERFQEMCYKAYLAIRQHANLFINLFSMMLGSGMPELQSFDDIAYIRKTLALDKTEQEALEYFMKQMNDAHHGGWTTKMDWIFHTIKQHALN

[4] = Clearance in Wistar Han rat at 2 mg/kg, iv; format: ADME, organism-based; conditions: in vivo
[5] = Volume of distribution in Wistar Han rat at 2 mg/kg, iv; format: ADME, organism-based; conditions: in vivo
[6] = Half life in Wistar Han rat at 2 mg/kg, iv; format: ADME, organism-based; conditions: in vivo

Phosphatidylinositol 4,5-bisphosphate 3-kinase catalytic subunit gamma isoform, sequence (P48736 whole entry, canonical isoform): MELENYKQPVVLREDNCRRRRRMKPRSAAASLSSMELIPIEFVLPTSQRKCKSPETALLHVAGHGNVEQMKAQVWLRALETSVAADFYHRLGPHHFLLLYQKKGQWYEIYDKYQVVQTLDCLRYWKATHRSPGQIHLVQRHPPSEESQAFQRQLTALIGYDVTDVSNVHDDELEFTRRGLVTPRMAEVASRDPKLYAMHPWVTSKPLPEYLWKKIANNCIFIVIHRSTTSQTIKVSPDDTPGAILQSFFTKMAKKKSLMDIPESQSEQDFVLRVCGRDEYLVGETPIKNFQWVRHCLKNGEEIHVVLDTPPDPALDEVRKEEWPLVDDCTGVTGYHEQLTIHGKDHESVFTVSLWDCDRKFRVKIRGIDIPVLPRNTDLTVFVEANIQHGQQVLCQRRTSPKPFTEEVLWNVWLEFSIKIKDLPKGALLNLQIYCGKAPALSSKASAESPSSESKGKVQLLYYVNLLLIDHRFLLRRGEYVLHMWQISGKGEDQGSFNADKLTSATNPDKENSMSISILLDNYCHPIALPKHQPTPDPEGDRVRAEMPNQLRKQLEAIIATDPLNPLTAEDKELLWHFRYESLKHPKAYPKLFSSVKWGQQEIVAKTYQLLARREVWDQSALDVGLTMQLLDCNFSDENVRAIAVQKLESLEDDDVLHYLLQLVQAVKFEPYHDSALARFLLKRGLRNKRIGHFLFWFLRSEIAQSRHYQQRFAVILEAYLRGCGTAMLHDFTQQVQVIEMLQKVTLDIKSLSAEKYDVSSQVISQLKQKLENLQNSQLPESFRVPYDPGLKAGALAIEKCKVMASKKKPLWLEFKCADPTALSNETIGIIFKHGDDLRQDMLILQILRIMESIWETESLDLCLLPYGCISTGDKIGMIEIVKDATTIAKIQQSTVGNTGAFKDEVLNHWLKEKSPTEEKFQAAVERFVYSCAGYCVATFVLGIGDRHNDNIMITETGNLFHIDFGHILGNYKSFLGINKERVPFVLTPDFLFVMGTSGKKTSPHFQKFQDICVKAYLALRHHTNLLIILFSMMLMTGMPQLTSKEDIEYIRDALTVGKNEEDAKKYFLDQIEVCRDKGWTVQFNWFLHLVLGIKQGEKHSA

Structure (SMILES) | IC50 [1] [µM] | further results
Cn1ncc2cc(-c3cc(OC4CN(C(=O)C5CC5)C4)cc4c3CNC4=O)cnc21 | > 10 | 
O=C1NCc2c1cc(-c1cccc(F)c1)cc2-c1cc(O)cc(F)c1 | > 10 | 
O=C1NCc2c1cc(O[C@@H]1CCN(C(=O)C3CC(F)(F)C3)C1)cc2-c1cc(O)cc(F)c1 | 1.35 | 
CNc1ncc(-c2cc(OC3CN(C(=O)C4C[C@H]4C)C3)cc3c2CNC3=O)cc1C(F)(F)F (stereo partly drawn) | > 10 | 
O=C1NCc2c1cc(NCCCc1ccccc1)cc2-c1cccc(O)c1 | 4.33 | 
O=C1NCc2c1cc(NCCCc1ccccc1)cc2-c1cc(O)cc(F)c1 | 2.02 | 
O=C1NCc2c1cccc2-c1cc(O)cc(F)c1 | > 10 | 
C[C@@H]1CN(Cc2nnc(-c3cc4c(c(-c5cc(O)cc(F)c5)c3)CNC4=O)o2)C[C@H](C)O1 | 7.39 | 
O=C1NCc2c1cc(NCCCN1CCOCC1)cc2-c1cccc(O)c1 | > 50 | IC50 [2]: 5.15 µM; IC50 [3]: 25 µM
COc1ccc(-c2cc(O[C@@H]3CCN(C(=O)C4CC4)C3)cc3c2CNC3=O)cn1 | 4.74 | 
O=C1NCc2c1cc(OC1CN(C(=O)C3CC3)C1)cc2-c1cnc(Cl)c(OC(F)F)c1 | > 10 | 
O=C1NCc2c1cc(O[C@@H]1CCN(C(=O)C3CC3)C1)cc2-c1cncc(O)c1 | 3.06 | 
Nc1ncc(-c2cc(OC3CN(C(=O)C4CC4)C3)cc3c2CNC3=O)cc1C(F)(F)F | > 10 | 
O=C1NCc2c1cc(OC1CN(C(=O)C3CC3)C1)cc2-c1ccc(OC(F)F)nc1 | > 10 | clearance [4]: 6.3 mL/min/kg; Vd [5]: 1.4 L/kg; half-life [6]: 3.7 h
Cc1ncc(-c2cc(O[C@@H]3CCN(C(=O)C4CC4)C3)cc3c2CNC3=O)cc1NS(C)(=O)=O | 3.01 | 
O=C1NCc2c1cc(O[C@@H]1CCN(C(=O)C3CCOCC3)C1)cc2-c1cc(O)cc(F)c1 | 3.13 | 
O=C1NCc2c1cc(O[C@@H]1CCN(C(=O)C3CC3)C1)cc2-c1cnc(F)c(O)c1 | 1.09 | 
O=C1NCc2c1cc(O[C@@H]1CCN(C(=O)C3CC3)C1)cc2-c1cc(O)cc(F)c1 | 1.8 | 
